Measurements published in paper PMC5149029, “New Aspects of Silibinin Stereoisomers and their 3-O-galloyl Derivatives on Cytotoxicity and Ceramide Metabolism in Hep G2 hepatocarcinoma Cell Line” (Iranian Journal of Pharmaceutical Research : IJPR, 2016).

Experiments:
[1] = biological target: T1, Acid ceramidase (ACDase) (Homo sapiens, UniProt Q13510); assay: ACDase activity assay (fluorogenic); type: cell-based; conditions: for ACDase activity in cell extract compared to control: Hep G2, 125 µM and higher concentrations
T1 construct: endogenous in cells; host or cells: Hep G2
T1 sequence (Q13510 22-395): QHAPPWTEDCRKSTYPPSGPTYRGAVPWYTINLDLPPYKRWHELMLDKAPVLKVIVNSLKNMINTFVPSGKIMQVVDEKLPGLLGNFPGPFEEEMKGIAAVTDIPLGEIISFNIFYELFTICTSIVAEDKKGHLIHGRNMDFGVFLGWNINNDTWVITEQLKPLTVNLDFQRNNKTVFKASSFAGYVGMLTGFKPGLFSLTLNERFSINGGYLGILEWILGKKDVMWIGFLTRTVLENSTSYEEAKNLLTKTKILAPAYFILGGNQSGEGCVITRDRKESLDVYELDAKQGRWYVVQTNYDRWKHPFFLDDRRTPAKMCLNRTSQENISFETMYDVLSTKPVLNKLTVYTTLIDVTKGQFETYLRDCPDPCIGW
Protocol: (§1) The cell line was grown in RPMI-1640 medium supplemented with L-glutamine 2 mM, HEPESNa 25 mM, penicillin 100 U/mL, streptomycin 100 μg/mL and 10% […] (FBS) at 37 °C in a humidified atmosphere containing 5% CO2. Hep G2 cells were seeded at 1 × 10^6 cells/mL and sub cultured every 2–3 days after 60–80% confluence was reached. To prepare the lysates cells attached to the culture plate were scraped off with a cell scraper and collected in a 1.5 mL tube by centrifugation. The cell pellets were rinsed with PBS, suspended in sterile water, and then lysed by sonication. For each experiment, the cells were treated separately with increasing concentrations of silibinin derivatives (0, 25, 50, 75, 100, 125, 150, 175 and 200 μM) and incubated for 48 h.
ACDase activity was measured in intact cells and in cell lysates by fluorogenic assays. For intact cell assays, cells (10,000/well) were seeded into 96-well plates in 10% FBS medium. After 24 h, medium was removed and replaced with 5% FBS medium containing indicated concentrations of silibinin derivatives (controls contained ethanol vehicle). Plates were placed in a tissue culture incubator at 37 °C, 5% CO2 for 24 h and cell viability assays were conducted in parallel. Fluorogenic substrate (ethanol vehicle) was then added to a final concentration of 16μM (125 μL final well volume), and the plates were incubated for 3 h at 37 °C, 5% CO2. To complete the assays, 50 μL methanol and 100 μL NaIO4 (2.5 mg/mL) in 0.1 M glycine buffer with a pH of 10.6 were added and the plates were incubated in a dark place for 2 h at 37 °C. Fluorescence was measured in the UV range (365 nm excitation/410–460 nm emission) using a GloMax® multi-detection system (Promega, Madison, WI).
To measure ACDase activity in cell lysates, cells were harvested using trypsin/EDTA, washed three times in ice-cold PBS and re-suspended at a concentration of 1 × 10^6 cells/mL in 0.2 M sucrose. After sonication on ice (microtip, 5–10 s), lysates were centrifuged at 20,000 × g at 4 °C for 15 min to remove debris. Protein in the supernatant was measured using the BCA assay (Pierce Products, Thermo Scientific, Rockford, IL) and bovine serum albumin standard curves. Supernatant protein (60 μg) was added to 96-well plates containing the indicated compounds and sodium acetate–acetic acid buffer, pH 4.5 (25 mM), and incubated for 1 h at 37 °C, in final well volume of 100 μL. Fluorescent substrate was added to a final concentration of 40 μM (125 μL total well volume), and the assay was incubated in the dark at 37 °C for 3 h. Fluorescence was then measured as described above ([23]).

[2] = tested on: Hep G2 cells; assay: Quantifying of total ceramide (HPLC, NDA derivatisation); type: cell-based, human; conditions: for Ceramide content with respect to control: Hep G2, 50 µM and higher concentrations
Protocol: as §1
Sample (3 µL of cell extract cell lysate) was mixed with 3 µL of an ACDase assay solution (0.2 M citrate–phosphate buffer, pH 4.5, 0.3 M NaCl, 0.2% Igepal CA-630, 10% FBS, 50 ng/µL ACDase) and incubated at 37 °C for 1 h. The reaction was stopped by adding ethanol (1:5) and centrifuged for 5 min at 13,000 × g. 10 µL of the supernatant was transferred into 20 µL of 25 mM sodium borate buffer (pH 9.0) containing 1.25 mM sodium cyanide and 1.25 mM NDA. The reaction mixture was incubated at 50 °C for 10min, diluted with ethanol (1:4), and centrifuged for 5 min at 13,000 × g. 5 µL of the supernatant was applied to high-performance liquid chromatography (HPLC) for analysis. The HPLC system consisted of Waters 600 S controller, 616 pump, 474 scanning fluorescence detector, 717 auto sampler (Waters, Milford, MA) and BetaBasic-C18 (20 cm × 4.6 mm) column with 3 µM particle size (Thermo Electron, Bellefonte, PA) which was not temperature regulated. All chromatographic procedures were carried out at room temperature using a mobile phase of 90% methanol at a flow rate of 1.0 mL/min. The fluorescent derivatives were monitored at the excitation wavelength of 252 nm and the emission wavelength of 483 nm ([35]). […]

Structure (SMILES)	ACDase activity in cell extract compared to control [1]	Ceramide content with respect to control [2]	Maximum ceramide level compared to control ([2]; Hep G2, 200 µM (the highest dose))	ACDase activity, effect of cell exposure ([1]; Hep G2, throughout the concentration range (0-200 µM))	inhibition at 200 µM ([1]; HepG2, Hep G2 cell extract, 200 µM)
COc1cc([C@H]2Oc3cc([C@H]4Oc5cc(O)cc(O)c5C(=O)[C@@H]4OC(=O)c4cc(O)c(O)c(O)c4)ccc3O[C@@H]2CO)ccc1O [SGA, 3-O-galloyl silybin A]	markedly inhibited	significant rises			
COc1cc([C@@H]2Oc3cc([C@H]4Oc5cc(O)cc(O)c5C(=O)[C@@H]4O)ccc3O[C@H]2CO)ccc1O [SB, silybin B]	markedly inhibited				
COc1cc([C@@H]2Oc3cc([C@H]4Oc5cc(O)cc(O)c5C(=O)[C@@H]4OC(=O)c4cc(O)c(O)c(O)c4)ccc3O[C@H]2CO)ccc1O [SGB, 3-O-galloyl silybin B]	markedly inhibited	significant rises	approximately 3.7 fold		
COc1cc([C@H]2Oc3cc([C@H]4Oc5cc(O)cc(O)c5C(=O)[C@@H]4O)ccc3O[C@@H]2CO)ccc1O [SA, silybin A]				could not alter ACDase activity	18%
